{"source": "patent US9469650B2", "about": "“Melampomagnolide B derivatives” (BOARD OF TRUSTEES OF THE UNIVERSITY OF ARKANSAS, priority 2013, dated 2016)", "key": {"NCI-H23": {"test_system": "NCI-H23", "assay": "panel of 60 human tumor cell lines, growth inhibition (Non-Small Cell Lung Cancer)", "details": "NCI-H23"}, "T-47D": {"test_system": "T-47D", "assay": "panel of 60 human tumor cell lines, growth inhibition (Breast Cancer)", "details": "for Percent Growth: T-47D"}, "NCI/ADR-RES": {"test_system": "NCI/ADR-RES", "assay": "panel of 60 human tumor cell lines, growth inhibition (Ovarian Cancer)"}, "KM12": {"test_system": "KM12", "assay": "panel of 60 human tumor cell lines, growth inhibition (Colon Cancer)"}, "CCRF-CEM": {"test_system": "CCRF-CEM", "assay": "panel of 60 human tumor cell lines, growth inhibition (Leukemia)"}, "HCT-116": {"test_system": "HCT-116", "assay": "panel of 60 human tumor cell lines, growth inhibition (Colon Cancer)", "details": "for Percent Growth: HCT-116; for GI50: HCT-116, HCT-116"}, "A498": {"test_system": "A498", "assay": "panel of 60 human tumor cell lines, growth inhibition (Renal Cancer)"}, "SK-OV-3": {"test_system": "SK-OV-3", "assay": "panel of 60 human tumor cell lines, growth inhibition (Ovarian Cancer)"}, "786-0": {"test_system": "786-0", "assay": "panel of 60 human tumor cell lines, growth inhibition (Renal Cancer)"}, "NCI-H522": {"test_system": "NCI-H522", "assay": "panel of 60 human tumor cell lines, growth inhibition (Non-Small Cell Lung Cancer)"}}}
{"smiles": "C=C1C(=O)O[C@H]2[C@H]1CC/C(COC(=O)NCCc1ccccn1)=C\\CC[C@@]1(C)O[C@@H]21", "note": "[JVM 61, ((1aR,7aS,10aS,10bS,E)-1a-methyl-8-methylene-9-oxo-1a,2,3,6,7,7a,8,9,10a,10b-decahydrooxireno[2′,3′:9,10]cyclodeca[1,2-b]furan-5-yl)methyl-(2-(pyridin-2-yl)ethyl)carbamate]", "values": [{"measurement": "Percent Growth", "setting": "NCI-H23; Log10 Concentration −5.0", "result": 56, "unit": "%"}, {"measurement": "Percent Growth", "setting": "NCI-H23; Log10 Concentration −6.0", "result": 100, "unit": "%"}, {"measurement": "Percent Growth", "setting": "NCI-H23; Log10 Concentration −7.0", "result": 101, "unit": "%"}, {"measurement": "Percent Growth", "setting": "NCI-H23; Log10 Concentration −8.0", "result": 104, "unit": "%"}, {"measurement": "GI50", "setting": "T-47D; Homo sapiens, T47D", "result": 6.19, "unit": "µM"}, {"measurement": "CC50", "setting": "T-47D; Homo sapiens, T47D, read-out: LC50", "result": "> 100", "unit": "µM"}, {"measurement": "IC (TGI)", "setting": "T-47D; Homo sapiens, T47D, read-out: TGI", "result": 25, "unit": "µM"}, {"measurement": "Percent Growth", "setting": "T-47D; Log10 Concentration −4.0", "result": "−43", "unit": "%"}, {"measurement": "Percent Growth", "setting": "T-47D; Log10 Concentration −5.0", "result": 35, "unit": "%"}, {"measurement": "Percent Growth", "setting": "T-47D; Log10 Concentration −6.0", "result": 106, "unit": "%"}, {"measurement": "Percent Growth", "setting": "T-47D; Log10 Concentration −7.0", "result": 104, "unit": "%"}, {"measurement": "Percent Growth", "setting": "T-47D; Log10 Concentration −8.0", "result": 98, "unit": "%"}, {"measurement": "GI50", "setting": "NCI/ADR-RES; Homo sapiens", "result": 20.1, "unit": "µM"}, {"measurement": "CC50", "setting": "NCI/ADR-RES; Homo sapiens, read-out: LC50", "result": "> 100", "unit": "µM"}, {"measurement": "IC (TGI)", "setting": "NCI/ADR-RES; Homo sapiens, read-out: TGI", "result": 54.7, "unit": "µM"}, {"measurement": "Percent Growth", "setting": "NCI/ADR-RES; Log10 Concentration −4.0", "result": "−30", "unit": "%"}, {"measurement": "Percent Growth", "setting": "NCI/ADR-RES; Log10 Concentration −5.0", "result": 85, "unit": "%"}, {"measurement": "Percent Growth", "setting": "NCI/ADR-RES; Log10 Concentration −6.0", "result": 106, "unit": "%"}, {"measurement": "Percent Growth", "setting": "NCI/ADR-RES; Log10 Concentration −7.0", "result": 106, "unit": "%"}, {"measurement": "Percent Growth", "setting": "NCI/ADR-RES; Log10 Concentration −8.0", "result": 105, "unit": "%"}, {"measurement": "GI50", "setting": "KM12; Homo sapiens, KM12", "result": 16.5, "unit": "µM"}, {"measurement": "CC50", "setting": "KM12; Homo sapiens, KM12, read-out: LC50", "result": 62.2, "unit": "µM"}, {"measurement": "TGI", "setting": "KM12; KM12", "result": "3.21E−5"}, {"measurement": "Percent Growth", "setting": "KM12; KM12, Log10 Concentration −4.0", "result": "−86", "unit": "%"}, {"measurement": "Percent Growth", "setting": "KM12; KM12, Log10 Concentration −5.0", "result": 88, "unit": "%"}, {"measurement": "Percent Growth", "setting": "KM12; KM12, Log10 Concentration −6.0", "result": 103, "unit": "%"}, {"measurement": "Percent Growth", "setting": "KM12; KM12, Log10 Concentration −7.0", "result": 107, "unit": "%"}, {"measurement": "Percent Growth", "setting": "KM12; KM12, Log10 Concentration −8.0", "result": 105, "unit": "%"}, {"measurement": "GI50", "setting": "CCRF-CEM; Homo sapiens", "result": 2.65, "unit": "µM"}, {"measurement": "GI50", "setting": "CCRF-CEM; Homo sapiens, 5-dose assay", "result": 2.65, "unit": "µM"}, {"measurement": "CC50", "setting": "CCRF-CEM; Homo sapiens, read-out: LC50", "result": "> 100", "unit": "µM"}, {"measurement": "IC (TGI)", "setting": "CCRF-CEM; Homo sapiens, read-out: TGI", "result": 8.59, "unit": "µM"}, {"measurement": "Percent Growth", "setting": "CCRF-CEM; Log10 Concentration −4.0", "result": "−39", "unit": "%"}, {"measurement": "Percent Growth", "setting": "CCRF-CEM; Log10 Concentration −5.0", "result": "−6", "unit": "%"}, {"measurement": "Percent Growth", "setting": "CCRF-CEM; Log10 Concentration −6.0", "result": 91, "unit": "%"}, {"measurement": "Percent Growth", "setting": "CCRF-CEM; Log10 Concentration −7.0", "result": 100, "unit": "%"}, {"measurement": "Percent Growth", "setting": "CCRF-CEM; Log10 Concentration −8.0", "result": 104, "unit": "%"}, {"measurement": "Percent Growth", "setting": "HCT-116; Log10 Concentration −4.0", "result": "−99", "unit": "%"}, {"measurement": "Percent Growth", "setting": "HCT-116; Log10 Concentration −5.0", "result": "−33", "unit": "%"}, {"measurement": "Percent Growth", "setting": "HCT-116; Log10 Concentration −6.0", "result": 82, "unit": "%"}, {"measurement": "Percent Growth", "setting": "HCT-116; Log10 Concentration −7.0", "result": 102, "unit": "%"}, {"measurement": "Percent Growth", "setting": "HCT-116; Log10 Concentration −8.0", "result": 99, "unit": "%"}, {"measurement": "GI50", "setting": "HCT-116; Homo sapiens", "result": 1.59, "unit": "µM"}, {"measurement": "GI50", "setting": "HCT-116; Homo sapiens, 5-dose assay", "result": 1.89, "unit": "µM"}, {"measurement": "CC50", "setting": "HCT-116; Homo sapiens, HCT-116, read-out: LC50", "result": 17.9, "unit": "µM"}, {"measurement": "IC (TGI)", "setting": "HCT-116; Homo sapiens, HCT-116, read-out: TGI", "result": 5.12, "unit": "µM"}, {"measurement": "Percent Growth", "setting": "A498; A498, Log10 Concentration −4.0", "result": "−97", "unit": "%"}, {"measurement": "Percent Growth", "setting": "A498; A498, Log10 Concentration −5.0", "result": 55, "unit": "%"}, {"measurement": "Percent Growth", "setting": "A498; A498, Log10 Concentration −6.0", "result": 87, "unit": "%"}, {"measurement": "Percent Growth", "setting": "A498; A498, Log10 Concentration −8.0", "result": 87, "unit": "%"}, {"measurement": "GI50", "setting": "A498; Homo sapiens, A498", "result": 16.8, "unit": "µM"}, {"measurement": "CC50", "setting": "A498; Homo sapiens, A498, read-out: LC50", "result": 49.1, "unit": "µM"}, {"measurement": "IC (TGI)", "setting": "A498; Homo sapiens, A498, read-out: TGI", "result": 25.1, "unit": "µM"}, {"measurement": "GI50", "setting": "SK-OV-3; Homo sapiens, SK-OV-3", "result": 26.2, "unit": "µM"}, {"measurement": "CC50", "setting": "SK-OV-3; Homo sapiens, SK-OV-3, read-out: LC50", "result": "> 100", "unit": "µM"}, {"measurement": "IC (TGI)", "setting": "SK-OV-3; Homo sapiens, SK-OV-3, read-out: TGI", "result": 97.4, "unit": "µM"}, {"measurement": "Percent Growth", "setting": "SK-OV-3; SK-OV-3, Log10 Concentration −4.0", "result": "−1", "unit": "%"}, {"measurement": "Percent Growth", "setting": "SK-OV-3; SK-OV-3, Log10 Concentration −5.0", "result": 87, "unit": "%"}, {"measurement": "Percent Growth", "setting": "SK-OV-3; SK-OV-3, Log10 Concentration −6.0", "result": 103, "unit": "%"}, {"measurement": "Percent Growth", "setting": "SK-OV-3; SK-OV-3, Log10 Concentration −7.0", "result": 187, "unit": "%"}, {"measurement": "Percent Growth", "setting": "SK-OV-3; SK-OV-3, Log10 Concentration −8.0", "result": 106, "unit": "%"}, {"measurement": "Percent Growth", "setting": "786-0; 786-0, Log10 Concentration −4.0", "result": "−93", "unit": "%"}, {"measurement": "Percent Growth", "setting": "786-0; 786-0, Log10 Concentration −5.0", "result": 15, "unit": "%"}, {"measurement": "Percent Growth", "setting": "786-0; 786-0, Log10 Concentration −6.0", "result": 96, "unit": "%"}, {"measurement": "Percent Growth", "setting": "786-0; 786-0, Log10 Concentration −7.0", "result": 101, "unit": "%"}, {"measurement": "Percent Growth", "setting": "786-0; 786-0, Log10 Concentration −8.0", "result": 101, "unit": "%"}, {"measurement": "GI50", "setting": "786-0; Homo sapiens, 786-0", "result": 3.7, "unit": "µM"}, {"measurement": "CC50", "setting": "786-0; Homo sapiens, 786-0, read-out: LC50", "result": 39.8, "unit": "µM"}, {"measurement": "IC (TGI)", "setting": "786-0; Homo sapiens, 786-0, read-out: TGI", "result": 13.8, "unit": "µM"}, {"measurement": "GI50", "setting": "NCI-H522; Homo sapiens, NCI-H522", "result": 1.64, "unit": "µM"}, {"measurement": "CC50", "setting": "NCI-H522; Homo sapiens, NCI-H522, read-out: LC50", "result": 9.29, "unit": "µM"}, {"measurement": "IC (TGI)", "setting": "NCI-H522; Homo sapiens, NCI-H522, read-out: TGI", "result": 3.9, "unit": "µM"}, {"measurement": "Percent Growth", "setting": "NCI-H522; NCI-H522, Log10 Concentration −4.0", "result": "−69", "unit": "%"}, {"measurement": "Percent Growth", "setting": "NCI-H522; NCI-H522, Log10 Concentration −5.0", "result": "−54", "unit": "%"}, {"measurement": "Percent Growth", "setting": "NCI-H522; NCI-H522, Log10 Concentration −6.0", "result": 76, "unit": "%"}, {"measurement": "Percent Growth", "setting": "NCI-H522; NCI-H522, Log10 Concentration −7.0", "result": 96, "unit": "%"}, {"measurement": "Percent Growth", "setting": "NCI-H522; NCI-H522, Log10 Concentration −8.0", "result": 95, "unit": "%"}]}
